Experimental data as given in US11161856B2 (H. Lundbeck A/S, priority 2017, dated 2021).

Columns and labels:
MGLL = target: T1, MGLL (Mus musculus, UniProt O35678); assay: In vitro competitive activity-based protein profiling, mouse brain proteome (MGLL); type: biochemical; details: concentration not given (μM)
T1 construct: Brain; from tissue; host or cells: mouse brain proteome
T1 sequence (O35678 1-303): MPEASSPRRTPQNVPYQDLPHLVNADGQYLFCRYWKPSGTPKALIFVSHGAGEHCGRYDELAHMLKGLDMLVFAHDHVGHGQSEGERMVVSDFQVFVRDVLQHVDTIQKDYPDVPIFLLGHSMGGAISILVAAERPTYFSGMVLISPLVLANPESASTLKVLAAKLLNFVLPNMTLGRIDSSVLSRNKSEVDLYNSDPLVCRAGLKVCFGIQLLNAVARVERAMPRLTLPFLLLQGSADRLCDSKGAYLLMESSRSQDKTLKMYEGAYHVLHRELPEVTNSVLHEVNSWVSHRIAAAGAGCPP

ABHD6 = target: T2, ABHD6 (Mus musculus, UniProt Q8R2Y0); assay: In vitro competitive activity-based protein profiling, mouse brain proteome (ABHD6); type: biochemical; details: mouse brain proteome; concentration not given (μM)
T2 construct: Brain; from tissue; host or cells: mouse brain proteome
T2 sequence (Q8R2Y0 1-336): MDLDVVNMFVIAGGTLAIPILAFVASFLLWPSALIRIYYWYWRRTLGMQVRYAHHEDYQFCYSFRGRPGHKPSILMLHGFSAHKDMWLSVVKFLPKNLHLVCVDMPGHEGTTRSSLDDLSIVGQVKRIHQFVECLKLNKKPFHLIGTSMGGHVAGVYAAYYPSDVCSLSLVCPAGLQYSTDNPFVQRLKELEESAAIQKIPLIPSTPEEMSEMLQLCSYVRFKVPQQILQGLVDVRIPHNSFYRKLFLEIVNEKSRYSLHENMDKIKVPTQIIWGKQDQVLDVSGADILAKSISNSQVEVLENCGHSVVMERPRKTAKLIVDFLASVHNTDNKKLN
Protocol: [The source words this procedure for another target and reports this target under the same test.] In Vitro Competitive Activity-Based Protein Profiling.
Proteomes (human prefrontal cortex or cell membrane fractions) (50 μL, 1.0 mg/mL total protein concentration) were preincubated with varying concentrations of inhibitors at 37° C. After 30 min, FP-Rh or HT-01 (1.0 μL, 50 μM in DMSO) was added and the mixture was incubated for another 30 min at room temperature. Reactions were quenched with SDS loading buffer (15 μL-4×) and run on SDS-PAGE.

Compound | % Inh MGLL Brain (Mouse, μM) (MGLL) | % Inh ABHD6 Brain (Mouse, μM) (ABHD6)
O=C(OC(C(F)(F)F)C(F)(F)F)N1CCC2(CC1)CN(Cc1c(Cl)cccc1N1CCOCC1)C2 [Example 46, 1,1,1,3,3,3-Hexafluoropropan-2-yl 2-(2-chloro-6-morpholinobenzyl)-2,7-diazaspiro[3.5]nonane-7-carboxylate] | ### (### is ≥75%) | ### (### is ≥75%)
O=C(OC(C(F)(F)F)C(F)(F)F)N1CCC2(CC1)CN(Cc1c(Cl)cccc1N1CCC(F)CC1)C2 [Example 47, 1,1,1,3,3,3-Hexafluoropropan-2-yl 2-(2-chloro-6-(4-fluoropiperidin-1-yl)benzyl)-2,7-diazaspiro[3.5]nonane-7-carboxylate] | ### (### is ≥75%) | ### (### is ≥75%)
O=C(OC(C(F)(F)F)C(F)(F)F)N1CCC2(CC1)CN(Cc1c(Cl)cccc1N1CCC3(CCOCC3)C1)C2 [Example 48, 1,1,1,3,3,3-Hexafluoropropan-2-yl 2-(2-chloro-6-(8-oxa-2-azaspiro[4.5]decan-2-yl)benzyl)-2,7-diazaspiro[3.5]nonane-7-carboxylate] | ### (### is ≥75%) | ### (### is ≥75%)
CC(=O)N1CCN(c2cccc(Cl)c2CN2CC3(CCN(C(=O)OC(C(F)(F)F)C(F)(F)F)CC3)C2)CC1 [Example 49, 1,1,1,3,3,3-Hexafluoropropan-2-yl 2-(2-(4-acetylpiperazin-1-yl)-6-chlorobenzyl)-2,7-diazaspiro[3.5]nonane-7-carboxylate] | ### (### is ≥75%) | ### (### is ≥75%)
CCN1CCN(c2cccc(Cl)c2CN2CC3(CCN(C(=O)OC(C(F)(F)F)C(F)(F)F)CC3)C2)CC1 [Example 50, 1,1,1,3,3,3-Hexafluoropropan-2-yl 2-(2-chloro-6-(4-ethylpiperazin-1-yl)benzyl)-2,7-diazaspiro[3.5]nonane-7-carboxylate] | ### (### is ≥75%) | ### (### is ≥75%)
O=C(OC(C(F)(F)F)C(F)(F)F)N1CCC2(CC1)CN(Cc1c(N3CCC(F)CC3)cccc1C(F)(F)F)C2 [Example 51, 1,1,1,3,3,3-Hexafluoropropan-2-yl 2-(2-(4-fluoropiperidin-1-yl)-6-(trifluoromethyl)benzyl)-2,7-diazaspiro[3,5]nonane-7-carboxylate] | ### (### is ≥75%) | ### (### is ≥75%)
O=C(OC(C(F)(F)F)C(F)(F)F)N1CCC2(CC1)CN(Cc1c(N3CCC4(CCOCC4)C3)cccc1C(F)(F)F)C2 [Example 52, 1,1,1,3,3,3-Hexafluoropropan-2-yl 2-(2-(8-oxa-2-azaspiro[4.5]decan-2-yl)-6-(trifluoromethyl)benzyl)-2,7-diazaspiro[3.5]nonane-7-carboxylate] | ### (### is ≥75%) | ### (### is ≥75%)
CS(=O)(=O)N1CCN(c2cccc(C(F)(F)F)c2CN2CC3(CCN(C(=O)OC(C(F)(F)F)C(F)(F)F)CC3)C2)CC1 [Example 53, 1,1,1,3,3,3-Hexafluoropropan-2-yl 2-(2-(4-(methylsulfonyl)piperazin-1-yl)-6-(trifluoromethyl)benzyl)-2,7-diazaspiro[3.5]nonane-7-carboxylate] | ### (### is ≥75%) | ### (### is ≥75%)
CCN1CCN(c2cccc(C(F)(F)F)c2CN2CC3(CCN(C(=O)OC(C(F)(F)F)C(F)(F)F)CC3)C2)CC1 [Example 54, 1,1,1,3,3,3-Hexafluoropropan-2-yl 2-(2-(4-ethylpiperazin-1-yl)-6-(trifluoromethyl)benzyl)-2,7-diazaspiro[3.5]nonane-7-carboxylate] | ### (### is ≥75%) | # (# is ≤25%)
O=C(OC(C(F)(F)F)C(F)(F)F)N1CC2(CCN(Cc3ccc(Cl)c(Cl)c3)CC2)C1 [Example 55, 1,1,1,3,3,3-Hexafluoropropan-2-yl 7-(3,4-dichlorobenzyl)-2,7-diazaspiro[3,5]nonane-2-carboxylate] | ## (## is between 25 and 75%) | ### (### is ≥75%)
O=C(OC(C(F)(F)F)C(F)(F)F)N1CC2(CCN(Cc3ccc(C(F)(F)F)cc3)CC2)C1 [Example 56, 1,1,1,3,3,3-Hexafluoropropan-2-yl 7-(4-(trifluoromethyl)benzyl)-2,7-diazaspiro[3.5]nonane-2-carboxylate] | ## (## is between 25 and 75%) | ### (### is ≥75%)
O=C(OC(C(F)(F)F)C(F)(F)F)N1CCC2(CC1)CN(Cc1c(Cl)cccc1N1CC3COCC3C1)C2 (stereo not drawn) [Example 57, 1,1,1,3,3,3-Hexafluoropropan-2-yl 2-(2-chloro-6-(tetrahydro-1H-furo[3,4-c]pyrrol-5(3H)-yl)benzyl)-2,7-diazaspiro[3.5]nonane-7-carboxylate] | ### (### is ≥75%) | ### (### is ≥75%)
O=C(OC(C(F)(F)F)C(F)(F)F)N1CCC2(CC1)CN(Cc1c(Cl)cccc1N1CCN(C3CC3)CC1)C2 [Example 58, 1,1,1,3,3,3-Hexafluoropropan-2-yl 2-(2-chloro-6-(4-cyclopropvlpiperazin-1-yl)benzyl)-2,7-diazaspiro[3.5]nonane-7-carboxylate] | ### (### is ≥75%) | ### (### is ≥75%)

The remaining lines, values ahead:

% Inh MGLL Brain (Mouse, μM) (MGLL) | % Inh ABHD6 Brain (Mouse, μM) (ABHD6) | Compound
### (### is ≥75%) | ### (### is ≥75%) | CC(=O)N1CCN(c2cccc(C(F)(F)F)c2CN2CC3(CCN(C(=O)OC(C(F)(F)F)C(F)(F)F)CC3)C2)CC1 [Example 59, 1,1,1,3,3,3-Hexafluoropropan-2-yl 2-(2-(4-acetylpiperazin-1-yl)-6-(trifluoromethyl)benzyl)-2,7-diazaspiro[3.5]nonane-7-carboxylate]
### (### is ≥75%) | ### (### is ≥75%) | O=C(OC(C(F)(F)F)C(F)(F)F)N1CCC2(CC1)CN(Cc1c(N3CCN(C4CC4)CC3)cccc1C(F)(F)F)C2 [Example 60, 1,1,1,3,3,3-Hexafluoropropan-2-yl 2-(2-(4-cyclopropylpiperazin-1-yl)-6-(trifluoromethyl)benzyl)-2,7-diazaspiro[3.5]nonane-7-carboxylate]
### (### is ≥75%) | ### (### is ≥75%) | CS(=O)(=O)N1CCC2(CCN(c3cccc(Cl)c3CN3CC4(CCN(C(=O)OC(C(F)(F)F)C(F)(F)F)CC4)C3)CC2)C1 [Example 61, 1,1,1,3,3,3-Hexafluoropropan-2-yl 2-(2-chloro-6-(2-(methylsulfonyl)-2,8-diazaspiro[4.5]decan-8-yl)benzyl)-2,7-diazaspiro[3.5]nonane-7-carboxylate]
### (### is ≥75%) | ### (### is ≥75%) | CS(=O)(=O)N1CCC2(CCN(c3cccc(C(F)(F)F)c3CN3CC4(CCN(C(=O)OC(C(F)(F)F)C(F)(F)F)CC4)C3)CC2)C1 [Example 62, 1,1,1,3,3,3-Hexafluoropropan-2-yl 2-(2-(2-(methylsulfonyl)-2,8-diazaspiro[4.5]decan-8-yl)-6-(trifluoromethyl)benzyl)-2,7-diazaspiro[3.5]nonane-7-carboxylate]
### (### is ≥75%) | ### (### is ≥75%) | CN(Cc1ccc(C(F)(F)F)cc1N1CCOCC1)C1(C)CCN(C(=O)OC(C(F)(F)F)C(F)(F)F)CC1 [Example 63, 1,1,1,3,3,3-Hexafluoropropan-2-yl 4-methyl-4-(methyl(2-morpholino-4-(trifluoromethyl)benzyl)amino) piperidine-1-carboxylate]
## (## is between 25 and 75%) | ### (### is ≥75%) | O=C(OC(C(F)(F)F)C(F)(F)F)N1CC2(CCN(Cc3cccc(Oc4ccccc4)c3)CC2)C1 [Example 64, 1,1,1,3,3,3-Hexafluoropropan-2-yl 7-(3-phenoxybenzyl)-2,7-diazaspiro[3,5]nonane-2-carboxylate]
### (### is ≥75%) | ### (### is ≥75%) | O=C(OC(C(F)(F)F)C(F)(F)F)N1CC2(CCN(Cc3ccc(N4CCOCC4)cc3)CC2)C1 [Example 65, 1,1,1,3,3,3-Hexafluoropropan-2-yl 7-(4-morpholinobenzyl)-2,7-diazaspiro[3.5]nonane-2-carboxylate]
### (### is ≥75%) | ### (### is ≥75%) | O=C(OC(C(F)(F)F)C(F)(F)F)N1CCC2(CC1)CN(Cc1ccc(Cl)c(Cl)c1)C2 [Example 67, 1,1,1,3,3,3-Hexafluoropropan-2-yl 2-(3,4-dichlorobenzyl)-2,7-diazaspiro[3,5]nonane-7-carboxylate]
